Patent publication US11479551B2, “MTA-cooperative PRMT5 inhibitors” (Mirati Therapeutics, Inc., priority 2019, dated 2022)
Where two headings read alike, the source gives them in different places.

What was measured:
PRMT5/MEP50 complex [1] = target: T1, PRMT5/MEP50 complex (Homo sapiens (Human), UniProt O14744); assay: PRMT5:MEP50 FlashPlate Assay (histone H4 peptide substrate, plus and minus MTA); type: biochemical; conditions: IC50 + 2 μM MTA (nM), in the presence of 2 μM MTA
Experimental: (§1) The PRMT5 inhibitory activity of compounds of the present invention was determined using either a PRMT5:MEP50 FlashPlate Assay (Reaction Biology Corporation) or a PRMT5:MEP50 HotSpot Assay (Reaction Biology Corporation).
1. PRMT5:MEP50 FlashPlate Assay

PRMT5/MEP50 complex [2] = target: T1, PRMT5/MEP50 complex; assay: PRMT5:MEP50 HotSpot Assay (full-length histone H2A substrate, plus and minus MTA); type: biochemical; conditions: in the presence of 2 μM MTA
Experimental: as §1
The assay uses recombinant full-length histone H2A as the PRMT5 substrate. […] The reaction was stopped and transferred to filter paper for detection. The amount of tritiated H2A in each sample was determined using a scintillation counter.

[3] = test system: HCT116 homozygous MTAP knockout cells; assay: Proliferation assay (CellTiter-Glo, 10 days of treatment), HCT116 MTAP knockout; type: cell-based; conditions: read-out: Proliferation HCT116MTAP_KO IC50
Experimental: (§2) 1. HCT116 MTAP Knockout Model
(§3) HCT116 cells were genetically engineered to knock out the function of both MTAP alleles using a CRISPR/Cas9 system and an sgRNA targeting the MTAP gene. Following Cas9/MTAP sgRNA transduction, clones were screened to confirm that each allele of the MTAP gene had been inactivated (i.e., homozygous MTAP knock out) creating an MTAP-deficient cell.
(§4) Control samples were analyzed in parallel.
Briefly, on Day 0, 250 HCT116 parental or HCT116 homozygous MTAP knockout cell were seeded in 96 well plates in McCoy's 5A supplemented with 10% fetal bovine serum and pen/strep and the cells were incubated overnight at 37° C. plus 5% CO2.
The following day, cells were treated with DMSO vehicle control or a dose response of PRMT5 inhibitors and incubated at 37 C plus 5% CO2 for five days. On Day 6, the cells were trypsinized and split 1:10 into new 96-well plates with fresh medium containing the same concentration of PRMT5 inhibitor and incubated for an additional 5 days at 37° C. plus 5% CO^2.
On Day 11, the viability of the cells was measured using a CTG assay kit (CellTiter-Glo; Promega cat.no G7573) in accordance with the manufacturer's instructions. The IC50 values for each compound after 10 days of treatment were calculated using GraphPad PRISM software.

[4] = test system: PRMT5-dependent Symmetric Di-methyl Arginine signal in HCT116 homozygous MTAP knockout cells; assay: SYM11 In-Cell Western, HCT116 MTAP knockout; type: cell-based; conditions: HCT116 homozygous MTAP knockout cells, 4 days of treatment, SYM11/DRAQ5 ratio, read-out: In-cell-Western (SYM11) HCT116 MTAP_KO IC50
Experimental: as §2, §3, §4
Briefly, on Day 0, 2,000 HCT116 parental or HCT116 homozygous MTAP knockout cells were seeded in 96 well plates in McCoy's 5A supplemented with 10% fetal bovine serum and pen/strep and the cells were incubated overnight at 37° C. plus 5% CO2. The following day, cells were treated with DMSO vehicle control or a dose response of PRMT5 inhibitors, and incubated at 37° C. plus 5% CO^2 for four days.
After 4 days of treatment, the cells were fixed by adding 50 μl of 4% paraformaldehyde solution to each well and the cells were incubated for 20 min at room temperature. The paraformaldehyde solution was removed, 150 μl of ice-cold methanol was added and the plate was placed −20° C. for 10 minutes. The methanol was removed, 150 μl of Odyssey Blocking buffer+0.05% Tween20 was added and the plate was incubated at room temperature with shaking for one hour.
The primary SYM11 antibody solution was removed by aspiration and the wells were washed three consecutive times with phosphate buffered saline containing 0.1% Tween-20 (PBST).
The secondary antibody solution was removed by aspiration and the wells were washed three consecutive times with PB ST.
The SYM11 signal and the DRAQ5 signal were quantified using a Li-Cor Odyssey machine reading at […], respectively. The SYM11/DRAQ5 ratio was used to calculate the inhibition of Symmetric Dimethyl Arginine as percent of DMSO control.

T1 sequence (O14744 2-637): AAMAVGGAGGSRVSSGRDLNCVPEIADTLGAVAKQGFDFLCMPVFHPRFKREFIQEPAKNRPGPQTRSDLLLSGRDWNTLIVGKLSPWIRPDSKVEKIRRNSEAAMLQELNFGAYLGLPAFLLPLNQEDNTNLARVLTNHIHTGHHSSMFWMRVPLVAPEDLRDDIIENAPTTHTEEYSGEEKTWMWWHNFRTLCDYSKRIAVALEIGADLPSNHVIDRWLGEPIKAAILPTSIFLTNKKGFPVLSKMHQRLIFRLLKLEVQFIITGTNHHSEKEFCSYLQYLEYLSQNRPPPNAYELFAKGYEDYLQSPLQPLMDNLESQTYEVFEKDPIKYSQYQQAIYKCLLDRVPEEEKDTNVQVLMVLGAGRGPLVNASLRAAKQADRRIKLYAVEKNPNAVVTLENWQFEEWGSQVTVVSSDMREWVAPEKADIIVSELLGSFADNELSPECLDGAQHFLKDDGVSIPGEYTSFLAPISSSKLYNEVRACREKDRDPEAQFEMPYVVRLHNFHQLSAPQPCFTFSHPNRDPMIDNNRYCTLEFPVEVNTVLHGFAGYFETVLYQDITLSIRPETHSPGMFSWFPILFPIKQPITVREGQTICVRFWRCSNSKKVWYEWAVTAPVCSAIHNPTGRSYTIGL
T1 sequence (Q9BQA1 2-342 partner): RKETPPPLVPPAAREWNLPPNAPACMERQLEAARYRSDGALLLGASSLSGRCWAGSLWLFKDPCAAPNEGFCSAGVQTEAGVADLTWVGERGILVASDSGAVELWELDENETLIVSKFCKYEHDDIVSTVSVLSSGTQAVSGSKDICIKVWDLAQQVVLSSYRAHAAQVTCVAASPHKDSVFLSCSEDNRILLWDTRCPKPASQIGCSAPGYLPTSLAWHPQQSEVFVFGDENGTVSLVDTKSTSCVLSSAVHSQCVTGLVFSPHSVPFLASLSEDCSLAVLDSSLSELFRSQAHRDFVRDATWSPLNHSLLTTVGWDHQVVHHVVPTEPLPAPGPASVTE

Row | SMILES | IC50 (PRMT5/MEP50 complex [1]) [nM] | IC50 (PRMT5/MEP50 complex [2]; IC50 + 2 μM MTA) [nM] | IC50 [3] [nM] | IC50 [4] [nM] | IC50 (PRMT5/MEP50 complex [2]; read-out: IC50 + 2 μM MTA) [nM] | IC50 ([3]; Homo sapiens, HCT-116, 240 h) [nM] | IC50 ([4]; Homo sapiens, HCT-116, 96 h) [nM]
1 | CC(N)c1n[nH]c(=O)c2ccc(-c3cnn(C)c3-c3cccc(Cl)c3C#N)cc12 (single isomer, unassigned) [Example 9-2, 2-[4-[4-(1-aminoethyl)-1-oxo-2H-phthalazin-6-yl]-2-methyl-pyrazol-3-yl]-6-chloro-benzonitrile] | > 10000 | > 10000 | > 10000 | > 1000 | – | – | –
2 | CC(N)c1n[nH]c(=O)c2ccc(-c3cnn(C)c3-c3cccc(Cl)c3C#N)cc12 (single isomer, unassigned) [Example 9-3, 2-[4-[4-(1-aminoethyl)-1-oxo-2H-phthalazin-6-yl]-2-methyl-pyrazol-3-yl]-6-chloro-benzonitrile] | – | 1270 | 4820 | 141 | – | – | –
3 | Cn1ncc(-c2ccc3c(=O)[nH]nc(CN)c3c2)c1-c1ccc2ccccc2c1Cl [Example 4-181, 4-(aminomethyl)-6-(5-(1-chloronaphthalen-2-yl)-1-methyl-1H-pyrazol-4-yl)phthalazin-1(2H)-one] | – | 401 | – | – | – | 450 | 25
4 | Cn1ncc(-c2ccc3c(=O)[nH]nc(CN)c3c2)c1CC(C#N)c1ccccc1 (stereo not shown) [Example 4-183, 3-(4-(4-(aminomethyl)-1-oxo-1,2-dihydrophthalazin-6-yl)-1-methyl-1H-pyrazol-5-yl)-2-phenylpropanenitrile] | – | 2770 | – | – | – | 897 | 324
5 | Cn1ncc(-c2c(-c3ccc4c(=O)[nH]nc(CN)c4c3)cnn2C)c1Cl [Example 4-185, 4-(aminomethyl)-6-(5′-chloro-1′,2-dimethyl-1′H,2H-[3,4′-bipyrazol]-4-yl)phthalazin-1(2H)-one] | – | 1160 | – | – | – | 3020 | 167
6 | Cn1ncc(-c2c(-c3ccc4c(=O)[nH]nc(CN)c4c3)cnn2C)c1C#N [Example 4-186, 4-(4-(aminomethyl)-1-oxo-1,2-dihydrophthalazin-6-yl)-1′,2-dimethyl-1′H,2H-[3,4′-bipyrazole]-5′-carbonitrile] | – | 2310 | – | – | – | 5780 | 5110
7 | NCc1n[nH]c(=O)c2ccc(-c3cnc4ccc(-c5ccccc5)nn34)cc12 [Example 4-191, 4-(aminomethyl)-6-(6-phenylimidazo[1,2-b]pyridazin-3-yl)phthalazin-1(2H)-one] | – | 612 | – | – | – | 1520 | 911
8 | Cn1ncc(-c2ccc3c(=O)[nH]nc(CN)c3c2)c1-c1cccc2c1COC2 [Example 4-220, 4-(aminomethyl)-6-(5-(1,3-dihydroisobenzofuran-4-yl)-1-methyl-1H-pyrazol-4-yl)phthalazin-1(2H)-one] | – | 567 | – | – | – | 5160 | 212
9 | Cn1ncc(-c2ccc3c(=O)[nH]nc(CN)c3c2)c1-c1cccc2c1COCC2 [Example 4-221, 4-(aminomethyl)-6-(5-(isochroman-8-yl)-1-methyl-1H-pyrazol-4-yl)phthalazin-1(2H)-one] | – | 501 | – | – | – | 2380 | 196
10 | Cn1ncc(-c2ccc3c(=O)[nH]nc(CN)c3c2)c1-c1cccc2ccncc12 [Example 4-222, 4-(aminomethyl)-6-(5-(isoquinolin-8-yl)-1-methyl-1H-pyrazol-4-yl)phthalazin-1(2H)-one] | – | 255 | – | – | – | 5340 | 296
11 | Cn1ncc(-c2ccc3c(=O)[nH]nc(CN)c3c2)c1-c1ccc(OC2CC2)c2cncn12 [Example 4-238, 4-(aminomethyl)-6-(5-(8-cyclopropoxyimidazo[1,5-a]pyridin-5-yl)-1-methyl-1H-pyrazol-4-yl)phthalazin-1(2H)-one] | – | 2310 | – | – | – | 1940 | 843
12 | Cn1ncc(-c2ccc3c(=O)[nH]nc([C@@H](N)C(F)F)c3c2)c1-c1ccc2ccccc2c1C#N [Example 9-7, 2-[4-[4-[(1R)-1-amino-2,2-difluoro-ethyl]-1-oxo-2H-phthalazin-6-yl]-2-methyl-pyrazol-3-yl]naphthalene-1-carbonitrile] | – | 2560 | – | – | – | > 10000 | > 1000

Continued, values first:

Row | IC50 (PRMT5/MEP50 complex [1]) [nM] | IC50 (PRMT5/MEP50 complex [2]; IC50 + 2 μM MTA) [nM] | IC50 [3] [nM] | IC50 [4] [nM] | IC50 (PRMT5/MEP50 complex [2]; read-out: IC50 + 2 μM MTA) [nM] | IC50 ([3]; Homo sapiens, HCT-116, 240 h) [nM] | IC50 ([4]; Homo sapiens, HCT-116, 96 h) [nM] | SMILES
13 | – | – | 2850 | 272 | 994 | – | – | Cn1ncc(-c2ccc3c(=O)[nH]nc(CN)c3c2)c1-c1c(C#N)cc2ccccc2c1Cl (single isomer, unassigned) [Example 16-5]
14 | – | – | 64 | 20 | 28 | – | – | Cn1ncc(-c2ccc3c(=O)[nH]nc(CN)c3c2)c1-c1c(C#N)cc2ccccc2c1Cl (single isomer, unassigned) [Example 16-6]
15 | – | 176 | – | – | – | 4370 | 436 | Cn1ncc(-c2ccc3c(=O)[nH]nc(CN)c3c2)c1-c1ccc(-c2cnsc2)cc1C#N [Example 12-4, 2-[4-[4-(aminomethyl)-1-oxo-2H-phthalazin-6-yl]-2-methyl-pyrazol-3-yl]-5-isothiazol-4-yl-benzonitrile]
16 | – | 112 | – | – | – | 3170 | 456 | Cn1cc(-c2ccc(-c3c(-c4ccc5c(=O)[nH]nc(CN)c5c4)cnn3C)c(C#N)c2)cn1 [Example 12-5, 2-(4-(4-(aminomethyl)-1-oxo-1,2-dihydrophthalazin-6-yl)-1-methyl-1H-pyrazol-5-yl)-5-(1-methyl-1H-pyrazol-4-yl)benzonitrile]
17 | – | 730 | – | – | – | 7470 | 380 | Cn1cc(-c2ccc(C#N)c(-c3c(-c4ccc5c(=O)[nH]nc(CN)c5c4)cnn3C)c2)cn1 [Example 12-6, 2-[4-[4-(aminomethyl)-1-oxo-2H-phthalazin-6-yl]-2-methyl-pyrazol-3-yl]-4-(1-methylpyrazol-4-yl)benzonitrile]
18 | – | 603 | – | – | – | 4980 | 427 | Cn1ncc(-c2ccc3c(=O)[nH]nc(CN)c3c2)c1-c1cc(-c2cnsc2)ccc1C#N [Example 12-7, 2-(4-(4-(aminomethyl)-1-oxo-1,2-dihydrophthalazin-6-yl)-1-methyl-1H-pyrazol-5-yl)-4-(isothiazol-4-yl)benzonitrile]
19 | – | 3860 | – | – | – | 7800 | 2860 | Cn1ncc(-c2ccc3c(=O)[nH]nc(CN)c3c2)c1-c1cc(C2CCOC2)ccc1C#N (stereo not shown) [Example 12-8, 2-[4-[4-(aminomethyl)-1-oxo-2H-phthalazin-6-yl]-2-methyl-pyrazol-3-yl]-4-THF-3-yl-benzonitrile]
20 | – | – | – | – | – | 149 | 64 | CCOc1cc(-c2cnn(C)c2-c2ccc3ccccc3c2C#N)cc2c(CN)n[nH]c(=O)c12 [Example 13-2, 2-[4-[4-(aminomethyl)-8-ethoxy-1-oxo-2H-phthalazin-6-yl]-2-methyl-pyrazol-3-yl]naphthalene-1-carbonitrile]
21 | – | – | – | – | – | 565 | 298 | CCOc1cc2ccccc2c(C#N)c1-c1c(-c2cc(OCC)c3c(=O)[nH]nc(CN)c3c2)cnn1C [Example 13-3, 2-[4-[4-(aminomethyl)-8-ethoxy-1-oxo-2H-phthalazin-6-yl]-2-methyl-pyrazol-3-yl]-3-ethoxy-naphthalene-1-carbonitrile]
22 | – | – | – | – | – | 211 | 96 | CCc1cc(-c2cnn(C)c2-c2cccc(OC3CC3)c2C#N)cc2c(CN)n[nH]c(=O)c12 [Example 15-2, 2-(4-(4-(aminomethyl)-8-ethyl-1-oxo-1,2-dihydrophthalazin-6-yl)-1-methyl-1H-pyrazol-5-yl)-6-cyclopropoxybenzonitrile]
